Laboratory results taken from patent US20140213466A1, “HIGH-THROUGHPUT ASSESSMENT METHOD FOR CONTACT HYPERSENSITIVITY” (Rutgers, The State University of New Jersey, priority 2010, published 2014).

Legend:
[1] = tested on: skin tissues (Episkin / Mutz3-LC co-culture); test: cytokine measurements (27 cytokines) of skin tissues exposed to known sensitizing chemicals, analysed by PCA; format: cell-based, human; conditions: several chemical concentrations, multiple replicates, comparison IE vs SA
Description: We have taken cytokine measurements of skin tissues that were exposed to known sensitizing chemicals. […] Principal component analysis (PCA) was used to reduce the high dimensional data into a lower dimension so that the differences in response from each chemical could be visualized.
Multiple cytokines and growth factors were assessed using the Biorad Bioplex Analyzer. 1 ml supernatants were collected for undifferentiated Mutz3 cells, Day 7 differentiated cells [Mutz3-LC] and Day 9 mature cells [mMutz3-LC]. The supernatants were tested for 27 cytokines with respective standards to detect cytokine secretion levels. Basal media samples were utilized as controls and supplementation with growth factors and cytokines viz. GMCSF, TGF-beta1, TNF-alpha, IL-6, IL1β were taken into account in the calculations. Cytokine secretion levels [pg/ml] were converted to [pg/million cells/day] by normalizing with the cell number for each cell stage of differentiation.
Different doses of SA (Salicylic Acid), IE (Isoeugenol), PPD (Paraphenylenediamine) and DNCB (DiNitroChlorobenzene) were topically applied onto a 1 cm^2 nylon disc to Episkin™ in 12 well inserts. The lower chamber consisted of Mutz3-LCs at a density of 250,000 cells/ml. Forty eight (48) hrs post sensitization, cells were resuspended in 1 ml fresh maturation media, supernatants were collected for subsequent analysis and cell count was performed. […]

[2] = stated as known property of the chemical; cited from earlier work

| Compound | cytokine profile induced in skin tissues (PCA, FIG. 11) [1] | skin sensitizer class [2] |
| --- | --- | --- |
| O=C(O)c1ccccc1O | do not induce distinct cytokine profiles | non-sensitizing irritant |
| CC=Cc1ccc(O)c(OC)c1 [isoeugenol] | do not induce distinct cytokine profiles | strong sensitizer |
